Among the test systems are UACC-62; UACC-257; HCT-15; NCI-H460; NCI-H226; PC-3; U-251; SNB-75; TK-10; SR; SK-MEL-2; SK-OV-3; CAKI-1; A498; SK-MEL-28; CCRF-CEM; Malme-3M; HCT-116; K562; MOLT-4.
Assay in all cases: DTP human tumour cell line panel, 48 h

Structures are written as SMILES.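 The compound was tested at five concentrations on cells cultured in 96-well plates, with a 48-hour exposure period. At the GI50, growth is halved.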 Calls of active or inactive are those of the source. Rule as the data show it: active = GI50 up to about 1.1 µM and inactive = higher.

A word on the GI50: it is the concentration at which growth is held to half of that of the control. Take `O=C(C=P(c1ccccc1)(c1ccccc1)c1ccccc1)c1ccccc1-c1ccccc1C(=O)C=P(c1ccccc1)(c1ccccc1)c1ccccc1`: the GI50 was < 0.0163 µM (active) in the assay with UACC-62; < 0.01 µM (active) in the assay with UACC-257; 0.28 µM in the assay on HCT-15; 0.0248 µM (active) in the assay on NCI-H460; 0.0221 µM (active) in the assay with NCI-H226; < 0.01 µM (active) with PC-3. Also, the 50% growth inhibitory concentration (GI50) in the assay on U-251 is 0.0173 µM (active); in the assay on SNB-75, 0.0206 µM (active); in the assay with TK-10 it was < 0.01 µM (active); in the assay on SR, 0.0143 µM (active); in the assay on SK-MEL-2 it was 0.0212 µM (active); in the assay on SK-OV-3 it was 0.0216 µM (active). In addition, the 50% growth inhibitory concentration (GI50) in the assay with CAKI-1 is 0.163 µM (active); with A498 it was 0.0264 µM (active); in the assay with SK-MEL-28, 0.178 µM (active); in the assay with CCRF-CEM, < 0.0128 µM (active); in the assay with Malme-3M it was < 0.01 µM (active); with HCT-116, 0.0222 µM (active). For the same compound, the GI50 with K562 was < 0.01 µM (active); with MOLT-4 it was 0.0124 µM (active).

For `CCN(CC)CC[S+]([O-])c1c2cc(OC)ccc2nc2ccc(OC)cc12` (stereo not given), the GI50 in the assay on UACC-62 is 17.8 µM (inactive); with UACC-257, 5.08 µM (inactive); with HCT-15, 3.21 µM; in the assay on NCI-H460, 27.7 µM (inactive); in the assay with NCI-H226 it was 18.1 µM (inactive); in the assay on PC-3, 12 µM (inactive). The GI50 in the assay with U-251 was 20 µM (inactive); in the assay with SNB-75, 19.6 µM (inactive); with TK-10, 5.56 µM (inactive); in the assay with SR, 2.72 µM (inactive); with SK-MEL-2 it was 18.6 µM (inactive); in the assay with SK-OV-3, 21.6 µM (inactive). For the same compound, the GI50 was 9.75 µM (inactive) with CAKI-1; 16.3 µM (inactive) with A498; 14.7 µM (inactive) with SK-MEL-28; 3.14 µM (inactive) with CCRF-CEM; 0.865 µM (active) in the assay on Malme-3M; 2.19 µM (inactive) with HCT-116. For the same compound, the figures for the GI50 in the assay on K562 and in the assay with MOLT-4 were 5.78 µM (inactive) and 2.31 µM (inactive), respectively.

On to `O=C1C(CN2CCOCC2)CCCC1CN1CCOCC1` (stereo not given), for which the GI50 with UACC-62 is 7.85 µM (inactive); in the assay on UACC-257 it was 2.09 µM (inactive); in the assay on HCT-15, 1.09 µM; in the assay on NCI-H460, 24.6 µM (inactive); in the assay on NCI-H226, 20.6 µM (inactive); in the assay with PC-3, 15.6 µM (inactive). Further, the GI50 in the assay on U-251 was 30.1 µM (inactive); in the assay on SNB-75, 14 µM (inactive); in the assay with TK-10 it was 3.94 µM (inactive); in the assay on SR, 5.31 µM (inactive); with SK-MEL-2, 8.36 µM (inactive); in the assay with SK-OV-3 it was 32.1 µM (inactive). Besides, the GI50 was 0.394 µM (active) in the assay on CAKI-1; 23 µM (inactive) in the assay on A498; 1.95 µM (inactive) in the assay with SK-MEL-28; 0.76 µM (active) in the assay with CCRF-CEM; 0.724 µM (active) in the assay with Malme-3M; 1.29 µM (inactive) with HCT-116. Further, the concentration for 50% growth inhibition (GI50) in the assay with K562 was 0.48 µM (active); in the assay on MOLT-4, 0.861 µM (active).

Turning to `O=S(=O)(/C=C/C=C/[S+]([O-])c1ccccc1)c1ccccc1` (stereo not given), the GI50 was 1.44 µM (inactive) in the assay on UACC-62; 1.67 µM (inactive) in the assay with UACC-257; 2.05 µM in the assay with HCT-15; > 10 µM (inactive) in the assay with NCI-H460; > 10 µM (inactive) in the assay with NCI-H226; > 6.92 µM (inactive) in the assay with PC-3. In addition, the GI50 in the assay with U-251 was > 10 µM (inactive); in the assay on SNB-75 it was 4.66 µM (inactive); in the assay with TK-10, 2.09 µM (inactive); in the assay on SR, 0.877 µM (active); in the assay on SK-MEL-2, 2.01 µM (inactive); in the assay with SK-OV-3, > 10 µM (inactive). Also, the GI50 in the assay on CAKI-1 is 1.84 µM (inactive); in the assay with A498, 6.97 µM (inactive); in the assay on SK-MEL-28, 1.98 µM (inactive); in the assay on CCRF-CEM it was 0.333 µM (active); with Malme-3M, 1.98 µM (inactive); in the assay on HCT-116, 1.38 µM (inactive). The GI50 with K562 was 0.902 µM (active); in the assay with MOLT-4, 1.42 µM (inactive).

For `COc1ccc(/C=C(/c2ccccc2)c2c(C)cc(C)c(/C(=C\c3ccc(OC)cc3)c3ccccc3)c2/N=N/c2cc(C)cc(C)c2)cc1`, the GI50 was 45.6 µM (inactive) in the assay with UACC-62; 7.69 µM (inactive) in the assay with UACC-257; above 66.1 µM in the assay on HCT-15; 15.5 µM (inactive) with NCI-H460; 34.2 µM (inactive) with NCI-H226; 9.89 µM (inactive) in the assay on PC-3. The GI50 was 7.33 µM (inactive) in the assay with U-251; 6.92 µM (inactive) in the assay on SNB-75; 21.9 µM (inactive) in the assay on TK-10; 63.5 µM (inactive) in the assay on SR; 7.74 µM (inactive) in the assay on SK-MEL-2; 41 µM (inactive) in the assay with SK-OV-3. The GI50 is > 88.1 µM (inactive) in the assay on CAKI-1; 32.7 µM (inactive) with A498; > 100 µM (inactive) in the assay on SK-MEL-28; 8.49 µM (inactive) in the assay with CCRF-CEM; 17.9 µM (inactive) in the assay on Malme-3M; 10 µM (inactive) with HCT-116. For the same compound, the GI50 in the assay with K562 is 11.7 µM (inactive); in the assay with MOLT-4, 15.7 µM (inactive).

In the case of `COc1ccc(/C=C2\CCC(CNc3cc(C)on3)C2=O)cc1` (stereo not given), the GI50 with UACC-62 is > 100 µM (inactive); in the assay on UACC-257, > 94.6 µM (inactive); in the assay with HCT-15, above 100 µM; in the assay on NCI-H460, > 78.5 µM (inactive); in the assay with NCI-H226, > 100 µM (inactive); with PC-3, > 100 µM (inactive). Further, the GI50 is > 60.1 µM (inactive) in the assay with U-251; 29.4 µM (inactive) in the assay on SNB-75; > 84.9 µM (inactive) in the assay with TK-10; > 100 µM (inactive) with SR; > 79.3 µM (inactive) with SK-MEL-2; > 92.5 µM (inactive) in the assay on SK-OV-3. In addition, the GI50 with CAKI-1 was > 100 µM (inactive); in the assay on A498 it was > 72.4 µM (inactive); with SK-MEL-28, > 100 µM (inactive); in the assay on CCRF-CEM, > 100 µM (inactive); with Malme-3M, > 100 µM (inactive); with HCT-116, > 100 µM (inactive). Also, the GI50 in the assay on K562 and in the assay on MOLT-4 was > 100 µM (inactive) throughout.

As to `CC/C=C/C(/C=C/C[C@]1(CC)C[C@H](CC)[C@H](CC(=O)O)OO1)CC` (stereo not given in full), the GI50 in the assay with UACC-62 was 5.94 µM (inactive); in the assay on UACC-257 it was 14.5 µM (inactive); with HCT-15 it was 2.61 µM; in the assay on NCI-H460 it was 1.96 µM (inactive); in the assay on NCI-H226 it was 20.8 µM (inactive); in the assay on PC-3, 1.67 µM (inactive). For the same compound, the GI50 in the assay on U-251 is 1.62 µM (inactive); in the assay on SNB-75, 6.41 µM (inactive); in the assay with TK-10, 1.91 µM (inactive); in the assay on SR, 0.421 µM (active); in the assay with SK-MEL-2, 4.01 µM (inactive); with SK-OV-3, 4.23 µM (inactive). The GI50 in the assay on CAKI-1 was 1.96 µM (inactive); in the assay with A498, 14.3 µM (inactive); in the assay with SK-MEL-28, 2.23 µM (inactive); with CCRF-CEM it was 0.492 µM (active); with Malme-3M, 12.4 µM (inactive); with HCT-116 it was 2.46 µM (inactive). The GI50 is 3.04 µM (inactive) in the assay with K562 and 2.31 µM (inactive) in the assay on MOLT-4.

Consider `CC(=O)N1N=C(c2ccc3ccccc3c2O)CC1C(=O)c1ccco1` (stereo not given), for which the GI50 in the assay with UACC-62 is 17 µM (inactive); with UACC-257, 32.1 µM (inactive); with HCT-15, 26.7 µM; with NCI-H460, 15.3 µM (inactive); with NCI-H226, 33.7 µM (inactive); in the assay with PC-3 it was 22.5 µM (inactive). Besides, the GI50 with U-251 was 27.7 µM (inactive); with SNB-75, 14.3 µM (inactive); in the assay with TK-10, 30.3 µM (inactive); in the assay with SR, 3.78 µM (inactive); with SK-MEL-2 it was 18.7 µM (inactive); in the assay with SK-OV-3, 36.1 µM (inactive). Further, the GI50 is 44.1 µM (inactive) in the assay with CAKI-1; 29.7 µM (inactive) in the assay on A498; 37.8 µM (inactive) in the assay on SK-MEL-28; 6.24 µM (inactive) with CCRF-CEM; 23.2 µM (inactive) with Malme-3M; 28.6 µM (inactive) with HCT-116. The GI50 in the assay on K562 is 11.6 µM (inactive); with MOLT-4, 5.62 µM (inactive).

For `Nc1ccccc1.O=C(O)C(C(F)(F)F)C(F)(F)F`, the GI50 was 68.5 µM (inactive) in the assay with UACC-62; > 100 µM (inactive) in the assay on UACC-257; 14.9 µM in the assay with HCT-15; > 100 µM (inactive) in the assay with NCI-H460; > 100 µM (inactive) in the assay on NCI-H226; > 100 µM (inactive) in the assay on PC-3. Besides, the GI50 in the assay on U-251, with SNB-75, with TK-10, in the assay on SR, in the assay on SK-MEL-2 and in the assay on SK-OV-3 was > 100 µM (inactive) throughout. Further, the GI50 in the assay on CAKI-1 is 34 µM (inactive); in the assay with A498, > 100 µM (inactive); with SK-MEL-28, > 100 µM (inactive); in the assay with CCRF-CEM it was > 100 µM (inactive); with Malme-3M, > 100 µM (inactive); in the assay with HCT-116 it was > 100 µM (inactive). Further, the GI50 with K562 and in the assay on MOLT-4 was > 100 µM (inactive) throughout.

As to `CC(=O)OC1CC[C@@]2(C)C(CC[C@]3(C)C2CC=C2[C@@H]4C(C)[C@H](C)CCC4(C)CCC23C)[C@@]1(C)C(=O)O` (stereo not given in full), the GI50 is 17 µM (inactive) in the assay with UACC-62; 21 µM (inactive) in the assay with UACC-257; 17.6 µM in the assay on HCT-15; 23.5 µM (inactive) with NCI-H460; 22.1 µM (inactive) in the assay with NCI-H226; 15.4 µM (inactive) in the assay with PC-3. Moreover, the GI50 was 22 µM (inactive) in the assay with U-251; 19.2 µM (inactive) with SNB-75; 18.6 µM (inactive) in the assay on TK-10; 27.9 µM (inactive) with SR; 21.3 µM (inactive) in the assay on SK-MEL-2; 18.4 µM (inactive) in the assay with SK-OV-3. The GI50 in the assay with CAKI-1 is 18.2 µM (inactive); with A498, 19.5 µM (inactive); in the assay on SK-MEL-28, 23.7 µM (inactive); with CCRF-CEM it was 24.9 µM (inactive); in the assay with Malme-3M it was 24.2 µM (inactive); with HCT-116, 16.4 µM (inactive). Further, the GI50 with K562 was 25.9 µM (inactive); in the assay on MOLT-4, 26.8 µM (inactive).

For the origin of these results see ChEMBL document CHEMBL1201862, “PubChem BioAssay data set” (2004).
